Test results as given in the supplement of paper PMC13380429.

Key:
Settings in all cases: 72 h
Caco-2 [1] = assay: cell viability relative to DMSO; higher = less toxic
Calu-3 [2] = assay: as above
HepG2 [3] = assay: as above
U2OS [4] = assay: as above
Vero E6 [5] = assay: as above
Caco-2 [6] = assay: relative viability EC50 (midpoint between 100% and the lowest measured viability); higher = less toxic
Calu-3 [7] = assay: as above
HepG2 [8] = assay: as above
U2OS [9] = assay: as above
Vero E6 [10] = assay: as above
Caco-2 [11] = assay: drug sensitivity score (DSS) for viability; higher = more toxic; extreme values may be limits of the assay
Calu-3 [12] = assay: as above
HepG2 [13] = assay: as above
U2OS [14] = assay: as above
Vero E6 [15] = assay: as above

| Structure (SMILES) | cell viability (Caco-2 [1]; 1 nM) [%] | cell viability (Caco-2 [1]; 10 nM) [%] | cell viability (Caco-2 [1]; 100 nM) [%] | cell viability (Caco-2 [1]; 1000 nM) [%] | cell viability (Caco-2 [1]; 10000 nM) [%] | cell viability (Calu-3 [2]; 1 nM) [%] | cell viability (Calu-3 [2]; 10 nM) [%] | cell viability (Calu-3 [2]; 100 nM) [%] | cell viability (Calu-3 [2]; 1000 nM) [%] | cell viability (Calu-3 [2]; 10000 nM) [%] | cell viability (HepG2 [3]; 1 nM) [%] | cell viability (HepG2 [3]; 10 nM) [%] | cell viability (HepG2 [3]; 100 nM) [%] | cell viability (HepG2 [3]; 1000 nM) [%] | cell viability (HepG2 [3]; 10000 nM) [%] | cell viability (U2OS [4]; 1 nM) [%] | cell viability (U2OS [4]; 10 nM) [%] | cell viability (U2OS [4]; 100 nM) [%] | cell viability (U2OS [4]; 1000 nM) [%] | cell viability (U2OS [4]; 10000 nM) [%] | cell viability (Vero E6 [5]; 1 nM) [%] | cell viability (Vero E6 [5]; 10 nM) [%] | cell viability (Vero E6 [5]; 100 nM) [%] | cell viability (Vero E6 [5]; 1000 nM) [%] | cell viability (Vero E6 [5]; 10000 nM) [%] | relative viability EC50 (Caco-2 [6]) [µM] | relative viability EC50 (Calu-3 [7]) [µM] | relative viability EC50 (HepG2 [8]) [µM] | relative viability EC50 (U2OS [9]) [µM] | relative viability EC50 (Vero E6 [10]) [µM] | drug sensitivity score (Caco-2 [11]) | drug sensitivity score (Calu-3 [12]) | drug sensitivity score (HepG2 [13]) | drug sensitivity score (U2OS [14]) | drug sensitivity score (Vero E6 [15]) |
| --- | --- | --- | --- | --- | --- | --- | --- | --- | --- | --- | --- | --- | --- | --- | --- | --- | --- | --- | --- | --- | --- | --- | --- | --- | --- | --- | --- | --- | --- | --- | --- | --- | --- | --- | --- |
| Cn1c(=O)c2c(ncn2CC(=O)Nc2ccc(-c3ccccc3)nn2)n(C)c1=O [ETC-159] | 91.7 | 91.3 | 98.3 | 93.5 | 79.9 | 98.1 | 94 | 103 | 113 | 110 | 94 | 89.4 | 106 | 87.4 | 79.2 | 95.1 | 96.7 | 93.4 | 99.2 | 98.5 | 97.1 | 97.8 | 93.7 | 89.4 | 94.7 | > 10 | > 10 | > 10 | > 10 | > 10 | 0.5 | 0 | 1.9 | 0 | 0 |
| O=C(N[C@H]1CN2CCC1CC2)c1cc2cccc(Cl)c2s1 [EVP-6124] | 94.6 | 97.5 | 98.2 | 101 | 92.9 | 87.9 | 92 | 89.1 | 98.5 | 85.1 | 90.6 | 95 | 106 | 92.7 | 94.7 | 104 | 100 | 95 | 103 | 95.2 | 95.6 | 92.2 | 97.8 | 96 | 92.9 | > 10 | > 10 | > 10 | > 10 | > 10 | 0 | 0 | 0 | 0 | 0 |
| O=C(O)CCc1ccc(NCc2cccc(Oc3ccccc3)c2)cc1 [GW-9508] | 95.4 | 98.4 | 102 | 112 | 106 | 90.9 | 100 | 107 | 106 | 104 | 97.1 | 101 | 96.9 | 99.8 | 96 | 91.9 | 97 | 98.6 | 102 | 97.6 | 94.1 | 96.1 | 97.8 | 95.2 | 101 | > 10 | > 10 | > 10 | > 10 | > 10 | 0 | 0 | 0 | 0 | 0 |
